Reference: PubChem BioAssay (NCI)
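Compound exposure: 48 hours, 5 concentrations, 96-well plates. At the TGI there is no net growth.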

Key:
Assay in all cases: DTP human tumour cell line panel, 48 h
COLO 205 colon = tested on: COLO 205 colon
NCI-H460 lung = tested on: NCI-H460 lung
786-0 renal = tested on: 786-0 renal
SNB-19 CNS = tested on: SNB-19 CNS
BT-549 breast = tested on: BT-549 breast
RXF 393 renal = tested on: RXF 393 renal
HL-60(TB) leukemia = tested on: HL-60(TB) leukemia
NCI/ADR-RES ovarian = tested on: NCI/ADR-RES ovarian
MDA-MB-231 breast = tested on: MDA-MB-231 breast
U251 CNS = tested on: U251 CNS
CCRF-CEM leukemia = tested on: CCRF-CEM leukemia
DU-145 prostate = tested on: DU-145 prostate
HS 578T breast = tested on: HS 578T breast
SR leukemia = tested on: SR leukemia
HOP-92 NSCLC = tested on: HOP-92 NSCLC
SF-539 CNS = tested on: SF-539 CNS
HCT-15 colon = tested on: HCT-15 colon
LOX IMVI melanoma = tested on: LOX IMVI melanoma
RPMI-8226 leukemia = tested on: RPMI-8226 leukemia
K-562 leukemia = tested on: K-562 leukemia
OVCAR-8 ovarian = tested on: OVCAR-8 ovarian
OVCAR-4 ovarian = tested on: OVCAR-4 ovarian
HCT-116 colon = tested on: HCT-116 colon
ACHN renal = tested on: ACHN renal
NCI-H522 lung = tested on: NCI-H522 lung
UACC-62 melanoma = tested on: UACC-62 melanoma
SK-MEL-28 melanoma = tested on: SK-MEL-28 melanoma
OVCAR-5 ovarian = tested on: OVCAR-5 ovarian
CAKI-1 renal = tested on: CAKI-1 renal
MDA-MB-435 = tested on: MDA-MB-435
HT29 colon = tested on: HT29 colon
MOLT-4 leukemia = tested on: MOLT-4 leukemia
PC-3 prostate = tested on: PC-3 prostate
SF-295 CNS = tested on: SF-295 CNS
A498 renal = tested on: A498 renal
EKVX NSCLC = tested on: EKVX NSCLC
UACC-257 melanoma = tested on: UACC-257 melanoma
M14 melanoma = tested on: M14 melanoma
SK-MEL-2 melanoma = tested on: SK-MEL-2 melanoma
KM12 colon = tested on: KM12 colon
HOP-62 NSCLC = tested on: HOP-62 NSCLC
TK-10 renal = tested on: TK-10 renal
A549 NSCLC = tested on: A549 NSCLC
SF-268 CNS = tested on: SF-268 CNS
SN12C renal = tested on: SN12C renal
SK-OV-3 ovarian = tested on: SK-OV-3 ovarian
NCI-H226 lung = tested on: NCI-H226 lung
UO-31 renal = tested on: UO-31 renal
SK-MEL-5 melanoma = tested on: SK-MEL-5 melanoma
MCF7 breast = tested on: MCF7 breast
IGROV1 ovarian = tested on: IGROV1 ovarian
T-47D breast = tested on: T-47D breast
SW-620 colon = tested on: SW-620 colon
OVCAR-3 ovarian = tested on: OVCAR-3 ovarian
NCI-H23 lung = tested on: NCI-H23 lung
HCC-2998 colon = tested on: HCC-2998 colon
MALME-3M melanoma = tested on: MALME-3M melanoma

Compound: COc1cc2c(cc1OCCCN1CCN(C)CC1)N=C[C@@H]1CCCN1C2=O
- TGI (COLO 205 colon): 2.25 µM
- TGI (NCI-H460 lung): > 100 µM
- TGI (786-0 renal): 18.3 µM
- TGI (SNB-19 CNS): > 100 µM
- TGI (BT-549 breast): 6.59 µM
- TGI (RXF 393 renal): 6.03 µM
- TGI (HL-60(TB) leukemia): 5.37 µM
- TGI (NCI/ADR-RES ovarian): 21.1 µM
- TGI (MDA-MB-231 breast): 22.3 µM
- TGI (U251 CNS): 14.5 µM
- TGI (CCRF-CEM leukemia): 10.6 µM
- TGI (DU-145 prostate): 5.98 µM
- TGI (HS 578T breast): > 100 µM
- TGI (SR leukemia): 0.839 µM
- TGI (HOP-92 NSCLC): 4.65 µM
- TGI (SF-539 CNS): 4.97 µM
- TGI (HCT-15 colon): 7.02 µM
- TGI (LOX IMVI melanoma): 4.38 µM
- TGI (RPMI-8226 leukemia): 3.68 µM
- TGI (K-562 leukemia): 14.2 µM
- TGI (OVCAR-8 ovarian): 8.79 µM
- TGI (OVCAR-4 ovarian): 4.78 µM
- TGI (HCT-116 colon): 9.47 µM
- TGI (ACHN renal): 6.12 µM
- TGI (NCI-H522 lung): 0.518 µM
- TGI (UACC-62 melanoma): 3.75 µM
- TGI (SK-MEL-28 melanoma): 3.97 µM
- TGI (OVCAR-5 ovarian): 7.01 µM
- TGI (CAKI-1 renal): 3.12 µM
- TGI (MDA-MB-435): 3.77 µM
- TGI (HT29 colon): 4.99 µM
- TGI (MOLT-4 leukemia): 2.53 µM
- TGI (PC-3 prostate): 9.78 µM
- TGI (SF-295 CNS): 5.37 µM
- TGI (A498 renal): 5.75 µM
- TGI (EKVX NSCLC): 6.02 µM
- TGI (UACC-257 melanoma): 5.68 µM
- TGI (M14 melanoma): 4.99 µM
- TGI (SK-MEL-2 melanoma): 7.41 µM
- TGI (KM12 colon): 4.95 µM
- TGI (HOP-62 NSCLC): 9.64 µM
- TGI (TK-10 renal): > 100 µM
- TGI (A549 NSCLC): 5.94 µM
- TGI (SF-268 CNS): > 100 µM
- TGI (SN12C renal): > 100 µM
- TGI (SK-OV-3 ovarian): 23.2 µM
- TGI (NCI-H226 lung): 4.62 µM
- TGI (UO-31 renal): > 100 µM
- TGI (SK-MEL-5 melanoma): 9.29 µM
- TGI (MCF7 breast): > 100 µM

Compound: CC12CCC([C@H](Nc3cc(C(F)(F)F)cc(C(F)(F)F)c3)C1=O)C2(C)C (stereo not given in full)
- TGI (COLO 205 colon): > 100 µM
- TGI (IGROV1 ovarian): > 100 µM
- TGI (786-0 renal): > 100 µM
- TGI (SNB-19 CNS): > 100 µM
- TGI (BT-549 breast): > 100 µM
- TGI (RXF 393 renal): 28 µM
- TGI (NCI/ADR-RES ovarian): > 100 µM
- TGI (MDA-MB-231 breast): > 100 µM
- TGI (DU-145 prostate): > 100 µM
- TGI (SR leukemia): > 100 µM
- TGI (SF-539 CNS): > 100 µM
- TGI (HCT-15 colon): > 100 µM
- TGI (LOX IMVI melanoma): > 100 µM
- TGI (T-47D breast): > 100 µM
- TGI (K-562 leukemia): > 100 µM
- TGI (OVCAR-8 ovarian): > 100 µM
- TGI (OVCAR-4 ovarian): > 100 µM
- TGI (SW-620 colon): > 100 µM
- TGI (HCT-116 colon): > 100 µM
- TGI (ACHN renal): > 100 µM
- TGI (OVCAR-3 ovarian): > 100 µM
- TGI (SK-MEL-28 melanoma): > 100 µM
- TGI (OVCAR-5 ovarian): > 100 µM
- TGI (CAKI-1 renal): > 100 µM
- TGI (MDA-MB-435): > 100 µM
- TGI (HT29 colon): > 100 µM
- TGI (MOLT-4 leukemia): > 100 µM
- TGI (PC-3 prostate): > 100 µM
- TGI (SF-295 CNS): > 100 µM
- TGI (EKVX NSCLC): > 100 µM
- TGI (NCI-H23 lung): > 100 µM
- TGI (UACC-257 melanoma): > 100 µM
- TGI (M14 melanoma): > 100 µM
- TGI (SK-MEL-2 melanoma): > 100 µM
- TGI (HCC-2998 colon): > 100 µM
- TGI (KM12 colon): > 100 µM
- TGI (HOP-62 NSCLC): > 100 µM
- TGI (TK-10 renal): > 100 µM
- TGI (A549 NSCLC): > 100 µM
- TGI (SF-268 CNS): > 100 µM
- TGI (SK-OV-3 ovarian): > 100 µM
- TGI (NCI-H226 lung): > 100 µM
- TGI (UO-31 renal): > 100 µM
- TGI (SK-MEL-5 melanoma): > 100 µM
- TGI (MALME-3M melanoma): > 100 µM
